Measurements published in patent US10561638B2, “Methods for treating dependence” (Biotie Therapies, Inc., priority 2007, dated 2020).
Entries after “also recorded” stand apart in the source; their conditions may differ.

Experiments:
[1] = system: tissue norepinephrine and dopamine levels; assay: Tissue catecholamines in Sprague-Dawley rats after 10 days b.i.d. dosing; assay type: in vivo; details: for dopamine/norepinephrine ratio vs vehicle: 2.0 and 6.2 mg/kg b.i.d., day 10, hydrochloride; for norepinephrine levels vs vehicle: 2.0 and 6.2 mg/kg
Experimental: Male Sprague-Dawley rats, weighing 180-200 grams, were fed an iodine deficient diet (Purina, 5891C, Lot 1478, 0.066±0.042 mg iodine/kg sample) ad libitum 14 days prior to treatment. Animals were weighed and randomly assigned to one of the following treatment groups (n=12 per group): nepicastat at 2.0 mg/kg, nepicastat at 6.2 mg/kg, Methimazole at 1 mg/kg, or vehicle at 1 ml/kg. Each group of rats was dosed orally in the evening and the following morning, approximately 12 hours apart, for 10 consecutive days.
At four hours after the second dose, on day 10, rats were anesthetized with halothane, decapitated, and the cortex, striatum, and mesenteric artery were harvested and weighed. Tissue samples were not harvested from the methimazole groups as they only served as positive controls for determination of thyroid function. The mesenteric artery, cortex, and striatum were immediately placed in 0.4 M iced perchloric acid and analyzed for norepinephrine and dopamine levels the same day using HPLC.
To statistically evaluate changes in T3 and T4 levels, a change from baseline was calculated from the day −3 time point. A non-parametric two-way within subject analysis of variance (ANOVA) was conducted. Also a one-way ANOVA was performed to detect if a significant difference from control occurred. Pairwise analyses between controls and each treatment group were carried out using Fisher's LSD strategy to control the experiment-wise error rate. For statistical analysis of catecholamine levels, a one-way ANOVA with factor DOSE was performed. Pairwise analyses between treated and controls at each dose were carried out using Fisher's LSD strategy to control the experiment-wise error rate.

[2] = Toxicity studies in dogs (acute, 1-month); assay type: in vivo
Experimental: Dose selection was based on data from two studies with nepicastat. […] In a 1-month study, doses of 5, 20, or 80 mg/kg were administered to dogs orally once daily.

[3] = system: mesenteric artery catecholamines and sympathetically-evoked responses; assay: Anesthetized beagle dogs, 30 mg/kg intraduodenally; assay type: in vivo
[4] = molecular target: protein kinase (non-selective); assay: Enzyme selectivity assay; assay type: biochemical
[5] = system: tissue norepinephrine and dopamine levels; assay: Tissue catecholamines in SHRs after single dose (dose response, time course); assay type: in vivo, spontaneously hypertensive rats; details: 6.2 mg/kg oral or i.v., 0.5 to 4 hours
D2 dopamine receptors = D2 dopamine receptors (Homo sapiens, UniProt P14416); assay: Radioligand binding assay
Experimental: (§1) The activity of nepicastat at twelve selected enzymes and receptors was determined using established assays. Binding data were analyzed by iterative curve-fitting to a four parameter logistic equation. Ki values were calculated from IC50 values using the Cheng-Prusoff equation. Enzyme inhibitory activity was expressed as IC50 (concentration required to produce 50% inhibition of enzyme activity).
(§2) The activity of nepicastat at eleven different enzymes was determined using established assays. The affinity of nepicastat for thirteen selected receptors was determined by radioligand binding assays using standard filtration techniques and membrane preparations. Binding data were analyzed by iterative curve fitting to a four parameter logistic equation. Ki values were calculated using the Cheng-Prusoff equation.
(§3) The binding affinity for nepicastat was screened at selected receptors. […] Thus nepicastat and its primary metabolite were not potent inhibitors for the receptors listed above.

[6] = molecular target: 5-HT2C serotonin receptors (Homo sapiens, UniProt P28335); assay: Radioligand binding assay
Experimental: as §1, §2, §3

[7] = molecular target: 5-HT1A serotonin receptors (Homo sapiens, UniProt P08908); assay: Radioligand binding assay
Experimental: as §1, §2, §3

[8] = molecular target: 5-HT2A serotonin receptors (Homo sapiens, UniProt P28223); assay: Radioligand binding assay
Experimental: as §1, §2, §3

D1 dopamine receptors = D1 dopamine receptors (Homo sapiens, UniProt P21728); assay: Radioligand binding assay
Experimental: as §1, §2, §3

M1 muscarinic receptors = M1 muscarinic receptors (Homo sapiens, UniProt P11229); assay: Radioligand binding assay
Experimental: as §1, §2, §3

Sequence of 5-HT1A serotonin receptors (P08908 whole entry): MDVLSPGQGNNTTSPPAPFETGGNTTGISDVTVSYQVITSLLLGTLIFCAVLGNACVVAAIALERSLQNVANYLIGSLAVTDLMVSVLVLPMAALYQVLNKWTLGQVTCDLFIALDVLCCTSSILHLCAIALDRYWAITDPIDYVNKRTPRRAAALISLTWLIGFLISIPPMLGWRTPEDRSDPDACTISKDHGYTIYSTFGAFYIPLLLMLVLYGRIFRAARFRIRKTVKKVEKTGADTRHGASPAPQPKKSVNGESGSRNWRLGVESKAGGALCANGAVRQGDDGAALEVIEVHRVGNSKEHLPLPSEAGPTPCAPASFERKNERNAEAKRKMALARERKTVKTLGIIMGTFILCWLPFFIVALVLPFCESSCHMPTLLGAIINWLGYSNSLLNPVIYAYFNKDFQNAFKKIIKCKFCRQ
Sequence of 5-HT2A serotonin receptors (P28223 whole entry): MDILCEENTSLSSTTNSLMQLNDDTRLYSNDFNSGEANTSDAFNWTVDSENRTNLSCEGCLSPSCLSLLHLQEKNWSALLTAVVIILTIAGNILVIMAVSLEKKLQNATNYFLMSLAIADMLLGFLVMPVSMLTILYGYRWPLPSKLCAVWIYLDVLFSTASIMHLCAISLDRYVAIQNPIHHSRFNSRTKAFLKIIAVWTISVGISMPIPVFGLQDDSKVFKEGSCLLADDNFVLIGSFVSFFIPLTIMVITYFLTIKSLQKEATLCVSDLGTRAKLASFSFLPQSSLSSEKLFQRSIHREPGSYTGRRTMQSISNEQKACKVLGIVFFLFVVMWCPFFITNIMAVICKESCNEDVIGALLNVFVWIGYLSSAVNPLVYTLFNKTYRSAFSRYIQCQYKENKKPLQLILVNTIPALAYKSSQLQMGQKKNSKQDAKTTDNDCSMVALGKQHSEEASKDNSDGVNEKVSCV
Sequence of D2 dopamine receptors (P14416 whole entry): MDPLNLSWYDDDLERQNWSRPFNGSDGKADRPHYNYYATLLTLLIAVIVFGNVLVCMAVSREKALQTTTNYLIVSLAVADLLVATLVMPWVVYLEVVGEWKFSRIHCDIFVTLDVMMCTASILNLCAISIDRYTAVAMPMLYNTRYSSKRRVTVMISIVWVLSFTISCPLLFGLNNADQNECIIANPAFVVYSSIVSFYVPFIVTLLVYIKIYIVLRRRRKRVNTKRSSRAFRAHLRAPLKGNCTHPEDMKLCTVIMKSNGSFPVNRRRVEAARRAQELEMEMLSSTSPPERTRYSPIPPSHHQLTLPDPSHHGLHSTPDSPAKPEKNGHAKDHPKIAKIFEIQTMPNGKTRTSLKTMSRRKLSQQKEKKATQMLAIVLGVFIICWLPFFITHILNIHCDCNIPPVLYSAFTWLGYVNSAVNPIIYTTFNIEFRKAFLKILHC
Sequence of 5-HT2C serotonin receptors (P28335 33-458): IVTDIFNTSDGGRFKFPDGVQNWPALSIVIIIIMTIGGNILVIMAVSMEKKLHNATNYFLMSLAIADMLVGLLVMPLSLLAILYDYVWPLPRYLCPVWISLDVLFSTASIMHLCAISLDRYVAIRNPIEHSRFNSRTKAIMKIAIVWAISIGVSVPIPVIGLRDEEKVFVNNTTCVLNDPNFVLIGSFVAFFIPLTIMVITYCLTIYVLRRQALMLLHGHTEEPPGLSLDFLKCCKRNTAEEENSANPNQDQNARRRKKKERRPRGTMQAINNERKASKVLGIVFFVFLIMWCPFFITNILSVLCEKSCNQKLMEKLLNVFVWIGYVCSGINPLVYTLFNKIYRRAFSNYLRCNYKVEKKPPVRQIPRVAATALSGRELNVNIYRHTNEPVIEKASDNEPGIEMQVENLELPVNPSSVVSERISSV
Sequence of M1 muscarinic receptors (P11229 whole entry): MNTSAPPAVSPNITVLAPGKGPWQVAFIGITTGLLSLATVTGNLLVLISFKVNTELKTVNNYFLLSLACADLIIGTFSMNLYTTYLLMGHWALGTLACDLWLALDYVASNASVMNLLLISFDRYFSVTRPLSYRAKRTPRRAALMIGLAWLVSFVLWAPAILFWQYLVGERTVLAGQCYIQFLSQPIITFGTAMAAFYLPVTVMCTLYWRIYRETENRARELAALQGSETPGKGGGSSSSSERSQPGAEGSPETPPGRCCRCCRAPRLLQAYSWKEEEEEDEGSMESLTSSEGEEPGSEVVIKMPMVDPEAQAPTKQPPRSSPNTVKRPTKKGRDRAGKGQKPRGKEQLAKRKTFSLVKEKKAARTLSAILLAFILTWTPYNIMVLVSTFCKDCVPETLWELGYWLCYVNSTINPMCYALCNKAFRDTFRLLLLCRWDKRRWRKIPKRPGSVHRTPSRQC
Sequence of D1 dopamine receptors (P21728 whole entry): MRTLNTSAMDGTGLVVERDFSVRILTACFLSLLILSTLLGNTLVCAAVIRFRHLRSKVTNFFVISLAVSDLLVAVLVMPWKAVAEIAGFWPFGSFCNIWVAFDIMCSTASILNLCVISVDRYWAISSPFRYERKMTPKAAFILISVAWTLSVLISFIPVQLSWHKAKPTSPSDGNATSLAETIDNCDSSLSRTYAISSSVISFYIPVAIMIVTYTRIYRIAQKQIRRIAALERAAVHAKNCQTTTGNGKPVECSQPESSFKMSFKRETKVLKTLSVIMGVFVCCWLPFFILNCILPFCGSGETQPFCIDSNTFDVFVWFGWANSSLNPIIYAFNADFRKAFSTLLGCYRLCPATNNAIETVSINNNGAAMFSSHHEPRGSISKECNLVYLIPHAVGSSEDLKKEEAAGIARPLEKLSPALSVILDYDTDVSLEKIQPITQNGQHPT

Cl.NCc1c[nH]c(=S)n1[C@H]1CCc2c(F)cc(F)cc2C1 [nepicastat, (S)-5-Aminomethyl-1-(5,7-difluoro-1,2,3,4-tetrahydronaphth-2-yl)-2,3-dihydro-2-thioxo-1H-imidazole hydrochloride]
dopamine levels vs vehicle ([1]; all three tissues, 2.0 or 6.2 mg/kg): not significantly (p>0.05) different | dopamine/norepinephrine ratio vs vehicle ([1]; cortex (and striatum)): not in the cortex; also recorded: not significantly (p>0.05) different | norepinephrine levels vs vehicle ([1]; cortex): not significantly (p>0.05) different | norepinephrine levels vs vehicle ([1]; mesenteric artery): significantly (p<0.05) lower | dopamine/norepinephrine ratio vs vehicle ([1]; mesenteric artery): significantly raised; also recorded: significantly (p<0.05) higher | norepinephrine levels vs vehicle ([1]; striatum): marginally (p<0.10) lower | 1-month toxicity ([2]; 80 mg/kg/day orally once daily): Clinical signs of toxicity were present | acute toxicity ([2]; single oral dose of 400 mg/kg): transient clinical signs of toxicity | responses to renal nerve stimulation and carotid artery occlusion ([3]; 30 mg/kg intraduodenally, up to 5 hours): did not significantly inhibit | mesenteric artery catecholamines ([3]; 5 hours after 30 mg/kg intraduodenally): significant decrease in norepinephrine levels and an increase in the dopamine/norepinephrine ratio | IC50 [4]: > 10 µM | mesenteric artery catecholamines [5]: significantly decreased norepinephrine and increased dopamine and the dopamine/norepinephrine ratio | Ki (D2 dopamine receptors): > 10 µM | Ki [6]: > 10 µM | Ki [7]: > 10 µM | Ki [8]: > 10 µM | Ki (D1 dopamine receptors): > 10 µM | Ki (M1 muscarinic receptors): > 10 µM
